# Laboratory results taken from PMC10850145, “Hormonal steroids induce multidrug resistance and stress response genes in Neisseria gonorrhoeae by binding to MtrR” (Nature Communications, 2024).
# Several values for one entry are separate records, joined by “and”; a condition that tells them apart may be missing. Equal values may be shown once. Read-outs that look alike come from different tables or passages of the source.
# Test system: mtrC-lacZ expression
# Type: cell-based, Neisseria gonorrhoeae
# Details: for Miller units: single well; for mtrC-lacZ β-galactosidase activity, Mean: left block of sheet (mtrCDE)
# [1] = second block of sheet (c39-c76), ΔmtrR + mtrR R176E in trans, 6.25 µM
# [2] = second block of sheet (c39-c76), ΔmtrR + mtrR R176E in trans, 12.5 µM
# [3] = second block of sheet (c39-c76), ΔmtrR + mtrR R176E in trans, 25 µM
# [4] = second block of sheet (c39-c76), ΔmtrR + mtrR R176E in trans, 50 µM
compound,measurement,setting,value
"C[C@]12CC[C@@H]3c4ccc(O)cc4CC[C@H]3[C@@H]1CC[C@@H]2O [β-Estradiol, β-estradiol]","β-galactosidase activity, individual replicate","mtrR WT in cis, 50 µM hormone, single replicate values, second (right) block",113 Miller units and 109 Miller units
same,"β-galactosidase activity, Miller units (single replicate)","mtrR WT in cis, 50 µM, first data set (c15-c36)",196 Miller units and 185 Miller units and 161 Miller units
same,"β-galactosidase activity, Miller units (single replicate)","mtrR WT in cis, 50 µM, second data set (c53-c74)",92 Miller units and 82 Miller units
same,"β-galactosidase activity, Mean",[1],80 Miller units
same,"β-galactosidase activity, single replicate",[1],96 Miller units and 78 Miller units and 89 Miller units and 60 Miller units
same,"β-galactosidase activity, Mean",[2],81 Miller units
same,"β-galactosidase activity, single replicate",[2],106 Miller units and 86 Miller units and 70 Miller units and 62 Miller units
same,"β-galactosidase activity, Mean",[3],94 Miller units
same,"β-galactosidase activity, single replicate",[3],126 Miller units and 96 Miller units and 86 Miller units and 68 Miller units
same,"β-galactosidase activity, Mean",[4],89 Miller units
same,"β-galactosidase activity, single replicate",[4],107 Miller units and 93 Miller units and 84 Miller units and 73 Miller units
same,Miller units,"plate rows 1-4, plate columns 1-6 (first strain), 6.25 µM hormone",104 Miller units and 79 Miller units and 90 Miller units and 61 Miller units
same,Miller units,"plate rows 1-4, plate columns 1-6 (first strain), 12.5 µM hormone",145 Miller units and 115 Miller units and 112 Miller units and 81 Miller units
same,Miller units,"plate rows 1-4, plate columns 1-6 (first strain), 25 µM hormone",166 Miller units and 152 Miller units and 162 Miller units and 114 Miller units
same,Miller units,"plate rows 1-4, plate columns 1-6 (first strain), 50 µM hormone",161 Miller units and 192 Miller units and 168 Miller units and 126 Miller units
same,Miller units,"plate rows 1-4, plate columns 7-12 (second strain), 12.5 µM hormone",165 Miller units and 161 Miller units and 99 Miller units
same,Miller units,"plate rows 1-4, plate columns 7-12 (second strain), 25 µM hormone",232 Miller units and 177 Miller units and 156 Miller units and 133 Miller units
same,Miller units,"plate rows 1-4, plate columns 7-12 (second strain), 50 µM hormone",195 Miller units and 178 Miller units and 151 Miller units and 114 Miller units
same,"β-galactosidase activity, mtrC-lacZ, Mean","strain WT (FA19/pLES94-mtrC), hormone 6.25 µM",131 Miller units
same,"β-galactosidase activity, mtrC-lacZ, Mean","strain WT (FA19/pLES94-mtrC), hormone 12.5 µM",148 Miller units
same,"β-galactosidase activity, mtrC-lacZ, Mean","strain WT (FA19/pLES94-mtrC), hormone 25 µM",177 Miller units
same,"β-galactosidase activity, mtrC-lacZ, Mean","strain WT (FA19/pLES94-mtrC), hormone 50 µM",224 Miller units
same,"mtrC-lacZ β-galactosidase activity, Mean","strain WT, 6.25 µM hormone",137 Miller units
same,"β-galactosidase activity, Mean","strain WT, 6.25 µM hormone, second (right) untitled block of sheet Figure S10 (mtrC)",44 Miller units
same,"mtrC-lacZ β-galactosidase activity, Mean","strain WT, 12.5 µM hormone",155 Miller units
same,"β-galactosidase activity, Mean","strain WT, 12.5 µM hormone, second (right) untitled block of sheet Figure S10 (mtrC)",54 Miller units
same,"mtrC-lacZ β-galactosidase activity, Mean","strain WT, 25 µM hormone",162 Miller units
same,"β-galactosidase activity, Mean","strain WT, 25 µM hormone, second (right) untitled block of sheet Figure S10 (mtrC)",60 Miller units
same,"mtrC-lacZ β-galactosidase activity, Mean","strain WT, 50 µM hormone",182 Miller units
same,"β-galactosidase activity, Mean","strain WT, 50 µM hormone, second (right) untitled block of sheet Figure S10 (mtrC)",99 Miller units
same,activation of mtrC,strain producing MtrR R176E,clearly weaker activation
same,"β-galactosidase activity, mtrC-lacZ, Mean","strain ΔmtrR (FA19 ∆mtrR/pLES94-mtrC), hormone 6.25 µM",210 Miller units
same,"β-galactosidase activity, mtrC-lacZ, Mean","strain ΔmtrR (FA19 ∆mtrR/pLES94-mtrC), hormone 12.5 µM",218 Miller units
same,"β-galactosidase activity, mtrC-lacZ, Mean","strain ΔmtrR (FA19 ∆mtrR/pLES94-mtrC), hormone 25 µM",243 Miller units
same,"β-galactosidase activity, mtrC-lacZ, Mean","strain ΔmtrR (FA19 ∆mtrR/pLES94-mtrC), hormone 50 µM",255 Miller units
same,"β-galactosidase activity, mtrC-lacZ, Mean","strain ΔmtrR + mtrR D171A (pGCC3-mtrR D171A), hormone 6.25 µM",149 Miller units
same,"β-galactosidase activity, mtrC-lacZ, Mean","strain ΔmtrR + mtrR D171A (pGCC3-mtrR D171A), hormone 12.5 µM",157 Miller units
same,"β-galactosidase activity, mtrC-lacZ, Mean","strain ΔmtrR + mtrR D171A (pGCC3-mtrR D171A), hormone 25 µM",167 Miller units
same,"β-galactosidase activity, mtrC-lacZ, Mean","strain ΔmtrR + mtrR D171A (pGCC3-mtrR D171A), hormone 50 µM",163 Miller units
same,"mtrC-lacZ β-galactosidase activity, Mean","strain ΔmtrR + mtrR R176E, 6.25 µM hormone",194 Miller units
same,"β-galactosidase activity, Mean","strain ΔmtrR + mtrR R176E, 6.25 µM hormone, second (right) untitled block of sheet Figure S10 (mtrC)",80 Miller units
same,"mtrC-lacZ β-galactosidase activity, Mean","strain ΔmtrR + mtrR R176E, 12.5 µM hormone",205 Miller units
same,"β-galactosidase activity, Mean","strain ΔmtrR + mtrR R176E, 12.5 µM hormone, second (right) untitled block of sheet Figure S10 (mtrC)",81 Miller units
same,"mtrC-lacZ β-galactosidase activity, Mean","strain ΔmtrR + mtrR R176E, 25 µM hormone",197 Miller units
same,"β-galactosidase activity, Mean","strain ΔmtrR + mtrR R176E, 25 µM hormone, second (right) untitled block of sheet Figure S10 (mtrC)",94 Miller units
same,"mtrC-lacZ β-galactosidase activity, Mean","strain ΔmtrR + mtrR R176E, 50 µM hormone",269 Miller units
same,"β-galactosidase activity, Mean","strain ΔmtrR + mtrR R176E, 50 µM hormone, second (right) untitled block of sheet Figure S10 (mtrC)",89 Miller units
same,"β-galactosidase activity, mtrC-lacZ, Mean","strain ΔmtrR + mtrR WT (pGCC3-mtrR), hormone 6.25 µM",116 Miller units
same,"β-galactosidase activity, mtrC-lacZ, Mean","strain ΔmtrR + mtrR WT (pGCC3-mtrR), hormone 12.5 µM",113 Miller units
same,"β-galactosidase activity, mtrC-lacZ, Mean","strain ΔmtrR + mtrR WT (pGCC3-mtrR), hormone 25 µM",138 Miller units
same,"β-galactosidase activity, mtrC-lacZ, Mean","strain ΔmtrR + mtrR WT (pGCC3-mtrR), hormone 50 µM",158 Miller units
same,"mtrC-lacZ β-galactosidase activity, Mean","strain ΔmtrR + mtrR WT, 6.25 µM hormone",106 Miller units
same,"β-galactosidase activity, Mean","strain ΔmtrR + mtrR WT, 6.25 µM hormone, second (right) untitled block of sheet Figure S10 (mtrC)",17 Miller units
same,"mtrC-lacZ β-galactosidase activity, Mean","strain ΔmtrR + mtrR WT, 12.5 µM hormone",117 Miller units
same,"β-galactosidase activity, Mean","strain ΔmtrR + mtrR WT, 12.5 µM hormone, second (right) untitled block of sheet Figure S10 (mtrC)",27 Miller units
same,"mtrC-lacZ β-galactosidase activity, Mean","strain ΔmtrR + mtrR WT, 25 µM hormone",136 Miller units
same,"β-galactosidase activity, Mean","strain ΔmtrR + mtrR WT, 25 µM hormone, second (right) untitled block of sheet Figure S10 (mtrC)",36 Miller units
same,"mtrC-lacZ β-galactosidase activity, Mean","strain ΔmtrR + mtrR WT, 50 µM hormone",154 Miller units
same,"β-galactosidase activity, Mean","strain ΔmtrR + mtrR WT, 50 µM hormone, second (right) untitled block of sheet Figure S10 (mtrC)",45 Miller units
same,"mtrC-lacZ β-galactosidase activity, Mean","strain ΔmtrR, 6.25 µM hormone",273 Miller units
same,"β-galactosidase activity, Mean","strain ΔmtrR, 6.25 µM hormone, second (right) untitled block of sheet Figure S10 (mtrC)",94 Miller units
same,"mtrC-lacZ β-galactosidase activity, Mean","strain ΔmtrR, 12.5 µM hormone",263 Miller units
same,"β-galactosidase activity, Mean","strain ΔmtrR, 12.5 µM hormone, second (right) untitled block of sheet Figure S10 (mtrC)",89 Miller units
same,"mtrC-lacZ β-galactosidase activity, Mean","strain ΔmtrR, 25 µM hormone",239 Miller units
same,"β-galactosidase activity, Mean","strain ΔmtrR, 25 µM hormone, second (right) untitled block of sheet Figure S10 (mtrC)",98 Miller units
same,"mtrC-lacZ β-galactosidase activity, Mean","strain ΔmtrR, 50 µM hormone",257 Miller units
same,"β-galactosidase activity, Mean","strain ΔmtrR, 50 µM hormone, second (right) untitled block of sheet Figure S10 (mtrC)",101 Miller units
same,"β-galactosidase activity, Miller units (single replicate)","ΔmtrR + mtrR WT in trans, 6.25 µM, first data set (c15-c36)",87 Miller units and 127 Miller units
same,"β-galactosidase activity, Miller units (single replicate)","ΔmtrR + mtrR WT in trans, 6.25 µM, second data set (c53-c74)",22 Miller units and 9 Miller units and 12 Miller units and 27 Miller units
same,"β-galactosidase activity, Miller units (single replicate)","ΔmtrR + mtrR WT in trans, 12.5 µM, first data set (c15-c36)",84 Miller units and 130 Miller units
same,"β-galactosidase activity, Miller units (single replicate)","ΔmtrR + mtrR WT in trans, 12.5 µM, second data set (c53-c74)",33 Miller units and 23 Miller units and 27 Miller units
same,"β-galactosidase activity, Miller units (single replicate)","ΔmtrR + mtrR WT in trans, 25 µM, first data set (c15-c36)",124 Miller units and 127 Miller units
same,"β-galactosidase activity, Miller units (single replicate)","ΔmtrR + mtrR WT in trans, 25 µM, second data set (c53-c74)",45 Miller units and 34 Miller units and 39 Miller units and 27 Miller units
same,"β-galactosidase activity, Miller units (single replicate)","ΔmtrR + mtrR WT in trans, 50 µM, first data set (c15-c36)",156 Miller units and 168 Miller units
same,"β-galactosidase activity, Miller units (single replicate)","ΔmtrR + mtrR WT in trans, 50 µM, second data set (c53-c74)",51 Miller units and 40 Miller units and 39 Miller units and 48 Miller units
same,"β-galactosidase activity, Miller units (single replicate)","ΔmtrR, 6.25 µM, first data set (c15-c36)",214 Miller units and 261 Miller units and 306 Miller units and 310 Miller units
same,"β-galactosidase activity, Miller units (single replicate)","ΔmtrR, 6.25 µM, second data set (c53-c74)",115 Miller units and 96 Miller units and 95 Miller units and 69 Miller units
same,"β-galactosidase activity, Miller units (single replicate)","ΔmtrR, 12.5 µM, first data set (c15-c36)",280 Miller units and 263 Miller units and 247 Miller units and 264 Miller units
same,"β-galactosidase activity, Miller units (single replicate)","ΔmtrR, 12.5 µM, second data set (c53-c74)",97 Miller units and 87 Miller units and 92 Miller units and 78 Miller units
same,"β-galactosidase activity, Miller units (single replicate)","ΔmtrR, 25 µM, first data set (c15-c36)",208 Miller units and 262 Miller units and 216 Miller units and 271 Miller units
same,"β-galactosidase activity, Miller units (single replicate)","ΔmtrR, 25 µM, second data set (c53-c74)",139 Miller units and 80 Miller units and 83 Miller units and 89 Miller units
same,"β-galactosidase activity, Miller units (single replicate)","ΔmtrR, 50 µM, first data set (c15-c36)",240 Miller units and 239 Miller units and 224 Miller units and 327 Miller units
same,"β-galactosidase activity, Miller units (single replicate)","ΔmtrR, 50 µM, second data set (c53-c74)",128 Miller units and 93 Miller units and 88 Miller units and 96 Miller units
